System: S. aureus Smith (ATCC 13709)
Experiment: Mouse systemic infection (septicemia) model, S. aureus Smith
Format: in vivo
Conditions: Staphylococcus aureus, CD-1 female mice; for responders at 3 mg/kg: ATCC13709, iv, IV 3 mg/kg one hour post infection, read-out: SA Smith septicemia survival IV (3 mg/kg); for responders at 3 mg/kg / responders at 30 mg/kg: 48 h, survival at 48 hours; for responders at 30 mg/kg: ATCC13709, po, PO 30 mg/kg one hour post infection, read-out: SA Smith septicemia survival PO (30 mg/kg); for ED50: ATCC13709, PO, dose that prevents 50% of the mice from death, 48 hours, read-out: SA Smith septicemia PD50 PO
Protocol: Mouse Systemic Infection Protocol-S. aureus Smith Septicemia
Compounds were screened for antibacterial activity in vivo in a mouse systemic infection (septicemia) model. In the model, CD-1 female mice (18-22 grams) were injected IP with a S. aureus Smith (ATCC 13709) inoculum that results in 0% survival within 24 to 48 hours. The bacterial dose required to achieve this effect was previously established through virulence studies. At one hour post infection, mice received either […] IV or […] PO. Typically, six mice were treated per dose group. Animal survival was assessed and recorded for 48 hours. Percent survival at 48 hours was recorded and PD50 (mg/kg) was determined for each compound tested.

**Q.** How did the responders at 3 mg/kg turn out when `CC(C)[C@@H](C)NCc1cc(O)c2c(c1C(F)(F)F)C[C@H]1C[C@H]3[C@H](N(C)C)C(O)=C(C(N)=O)C(=O)[C@@]3(O)C(O)=C1C2=O` [Compound S25-11-171] was run?
**A.** The responders at 3 mg/kg was 83%.

**Q.** What about the responders at 30 mg/kg of the same molecule?
**A.** Its responders at 30 mg/kg is 17%.

**Q.** With `CN(C)c1c(CN2CCCCCC2)cc(O)c2c1C[C@H]1C[C@H]3[C@H](N(C)C)C(O)=C(C(N)=O)C(=O)[C@@]3(O)C(O)=C1C2=O` [Compound S16-10-177] as the molecule, how does the responders at 3 mg/kg read?
**A.** Its responders at 3 mg/kg is 100%.

**Q.** And the responders at 30 mg/kg?
**A.** The responders at 30 mg/kg was 100%.

**Q.** Which responders at 3 mg/kg does the source give for `CN(C)[C@@H]1C(O)=C(C(N)=O)C(=O)[C@@]2(O)C(O)=C3C(=O)c4c(O)cc(CN5CCC(C)(C)CC5)c(Cl)c4C[C@H]3C[C@@H]12` [Compound S15-13-16] here?
**A.** Its responders at 3 mg/kg is 33%.

**Q.** And the responders at 30 mg/kg?
**A.** Its responders at 30 mg/kg is 17%.

**Q.** `CN(Cc1cc(O)c2c(c1F)C[C@H]1C[C@H]3[C@H](N(C)C)C(O)=C(C(N)=O)C(=O)[C@@]3(O)C(O)=C1C2=O)CC(C)(C)C` [Compound S2-4-21] was tested. Which responders at 3 mg/kg did it give?
**A.** Its responders at 3 mg/kg is 16%.

**Q.** What about the responders at 30 mg/kg of the same molecule?
**A.** The responders at 30 mg/kg was 0%.

**Q.** `CC(C)N(Cc1cc(O)c2c(c1Cl)C[C@H]1C[C@H]3[C@H](N(C)C)C(O)=C(C(N)=O)C(=O)[C@@]3(O)C(O)=C1C2=O)CC1CC1` [Compound S15-13-215] was tested. Which responders at 3 mg/kg did it give?
**A.** The responders at 3 mg/kg was 50%.

**Q.** What about the responders at 30 mg/kg of the same molecule?
**A.** The responders at 30 mg/kg was 50%.

**Q.** With `CCN(Cc1cc(O)c2c(c1F)C[C@H]1C[C@H]3[C@H](N(C)C)C(O)=C(C(N)=O)C(=O)[C@@]3(O)C(O)=C1C2=O)C(C)(C)CC` [Compound S2-4-33] as the molecule, how does the responders at 3 mg/kg read?
**A.** Its responders at 3 mg/kg is 67%.

**Q.** What about the responders at 30 mg/kg of the same molecule?
**A.** The responders at 30 mg/kg was 33%.

**Q.** How did the responders at 3 mg/kg turn out when `CN(C)c1c(CN2CCCC2(C)C)cc(O)c2c1C[C@H]1C[C@H]3[C@H](N(C)C)C(O)=C(C(N)=O)C(=O)[C@@]3(O)C(O)=C1C2=O` [Compound S16-10-11] was run?
**A.** Its responders at 3 mg/kg is 100%.

**Q.** What about the responders at 30 mg/kg of the same molecule?
**A.** The responders at 30 mg/kg was 100%.

**Q.** And the ED50?
**A.** The ED50 was 10 mg/kg.

**Q.** With `CN(C)[C@@H]1C(O)=C(C(N)=O)C(=O)[C@@]2(O)C(O)=C3C(=O)c4c(O)cc(CNCc5ccccc5)c(F)c4C[C@H]3C[C@@H]12` [Compound S1-14-105] as the molecule, how does the responders at 3 mg/kg read?
**A.** Its responders at 3 mg/kg is 67%.

**Q.** What about the responders at 30 mg/kg of the same molecule?
**A.** The responders at 30 mg/kg was 0%.

**Q.** Which results are given for `C[C@H]1CCC[C@H](C)N1Cc1cc(O)c2c(c1Cl)C[C@H]1C[C@H]3[C@H](N(C)C)C(O)=C(C(N)=O)C(=O)[C@@]3(O)C(O)=C1C2=O` [Compound S15-13-225]?
**A.** responders at 3 mg/kg: 100%; responders at 30 mg/kg: 100%

**Q.** How did the responders at 3 mg/kg turn out when `CN(C)[C@@H]1C(O)=C(C(N)=O)C(=O)[C@@]2(O)C(O)=C3C(=O)c4c(O)cc(CNC56CC7CC(CC(C7)C5)C6)c(F)c4C[C@H]3C[C@@H]12` [Compound S1-14-4] was run?
**A.** Its responders at 3 mg/kg is 100%.

**Q.** What about the responders at 30 mg/kg of the same molecule?
**A.** The responders at 30 mg/kg was 0%.

**Q.** Which results are given for `C[C@@H]1CCC[C@H](C)N1Cc1cc(O)c2c(c1Cl)C[C@H]1C[C@H]3[C@H](N(C)C)C(O)=C(C(N)=O)C(=O)[C@@]3(O)C(O)=C1C2=O` [Compound S15-13-221]?
**A.** responders at 3 mg/kg: 33%; responders at 30 mg/kg: 50%

**Q.** What does the source list for `CN(C)[C@@H]1C(O)=C(C(N)=O)C(=O)[C@@]2(O)C(O)=C3C(=O)c4c(O)cc(CN(C)C(C)(C)CC(C)(C)C)c(F)c4C[C@H]3C[C@@H]12` [Compound S2-4-30]?
**A.** responders at 3 mg/kg: 33%; ED50: > 60 mg/kg

**Q.** With `CCN(Cc1cc(O)c2c(c1F)C[C@H]1C[C@H]3[C@H](N(C)C)C(O)=C(C(N)=O)C(=O)[C@@]3(O)C(O)=C1C2=O)C1(C)CC1` [Compound S1-14-36] as the molecule, how does the responders at 3 mg/kg read?
**A.** The responders at 3 mg/kg was 33%.

**Q.** What about the responders at 30 mg/kg of the same molecule?
**A.** Its responders at 30 mg/kg is 0%.

**Q.** Which results are given for `CN(C)[C@@H]1C(O)=C(C(N)=O)C(=O)[C@@]2(O)C(O)=C3C(=O)c4c(O)cc(CN5CCOCC5)c(Cl)c4C[C@H]3C[C@@H]12` [Compound S15-13-17]?
**A.** responders at 3 mg/kg: 100%; responders at 30 mg/kg: 67%

**Q.** Which results are given for `CN(C)[C@@H]1C(O)=C(C(N)=O)C(=O)[C@@]2(O)C(O)=C3C(=O)c4c(O)cc(CN5CC[C@H](F)C5)c(Cl)c4C[C@H]3C[C@@H]12` [Compound S15-13-226]?
**A.** responders at 3 mg/kg: 100%; responders at 30 mg/kg: 83%

— patent publication US9315451B2, “Tetracycline compounds” (priority 2009, dated 2016)
